{"source": "patent US11000033B2", "about": "“Ketone or oxime compound, and herbicide” (NISSAN CHEMICAL CORPORATION, priority 2014, dated 2021)", "key": {"[1]": {"system": "Echinochloa oryzacola Vasing.", "assay": "Test Example 1: herbicidal activity, application before weed generation in submerged conditions (symbol A)", "type": "in vivo", "details": "application herbicide amount 320 g/ha", "in_short": "(§1)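 Paddy pre-emergence test. Formulated emulsion, water-diluted to a predetermined rate, is applied to floodwater on sowing day; rice transplanted at 2.5 leaves. Effect read at 3 weeks on a 0–5 herbicidal-ratio scale.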"}, "Monochoria vaginalis": {"system": "Monochoria vaginalis", "assay": "Test Example 1: herbicidal activity, application before weed generation in submerged conditions (symbol C)", "type": "in vivo", "details": "application herbicide amount 320 g/ha", "in_short": "as §1"}, "[2]": {"system": "Echinochloa oryzacola Vasing.", "assay": "Test Example 2: herbicidal activity, application during weed generation in submerged conditions (symbol A)", "type": "in vivo", "details": "Table 23; application herbicide amount 320 g/ha; grade 0-5 by criteria of Test Example 1", "in_short": "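Treatment timing was the one- to two-leaf stage, with diluted emulsifiable compound dropped onto the paddy water (depth 4 cm) over alluvial soil. All three species grew from a mixed sowing in a 25° C. to 30° C. greenhouse. Injury was judged by eye 3 weeks on.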"}, "Digitaria ciliaris": {"system": "Digitaria ciliaris", "assay": "Test Example 4: herbicidal effect by soil treatment (symbol F)", "type": "in vivo", "details": "application herbicide amount 320 g/ha", "in_short": "(§2)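 Seeds were sown in sterilized diluvial soil, covered with about 1.5 cm of soil, and the soil surface was sprayed with a water-diluted emulsion of the compound at a predetermined rate. Plants grew in a greenhouse at 25° C. to 30° C.; effects were scored visually 3 weeks after application.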"}, "Veronica persica [3]": {"system": "Veronica persica", "assay": "Test Example 4: herbicidal effect by soil treatment (symbol R)", "type": "in vivo", "details": "application herbicide amount 320 g/ha", "in_short": "as §2"}, "Avena fatua": {"system": "Avena fatua", "assay": "Test Example 5: herbicidal effect by foliage application, plastic box (symbol I)", "type": "in vivo", "details": "320 g/ha, 3 weeks after application", "in_short": "(§3)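 Seeds were sown in sterilized diluvial soil, covered with about 1.5 cm of soil and grown 14 days in a greenhouse at 25° C. to 30° C. An emulsifiable formulation diluted in water to a set rate was sprayed over foliage, and injury was scored 3 weeks later.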"}, "Lolium multiflorum Lam.": {"system": "Lolium multiflorum Lam.", "assay": "Test Example 5: herbicidal effect by foliage application, plastic box (symbol K)", "type": "in vivo", "details": "320 g/ha, 3 weeks after application", "in_short": "as §3"}, "Veronica persica [4]": {"system": "Veronica persica", "assay": "Test Example 5: herbicidal effect by foliage application, plastic box (symbol R)", "type": "in vivo", "details": "320 g/ha, 3 weeks after application", "in_short": "as §3"}, "corn": {"system": "corn", "assay": "Test Example 5: effect on crop by foliage application, plastic box (symbol c)", "type": "in vivo", "details": "320 g/ha, 3 weeks after application", "in_short": "(§4)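 Plants were raised from seed in a greenhouse (25° C. to 30° C.) after sowing in a plastic box of sterilized diluvial soil.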"}, "beet": {"system": "beet", "assay": "Test Example 5: effect on crop by foliage application, plastic box (symbol f)", "type": "in vivo", "details": "320 g/ha, 3 weeks after application", "in_short": "as §4"}, "rapeseed": {"system": "rapeseed", "assay": "Test Example 5: effect on crop by foliage application, plastic box (symbol g)", "type": "in vivo", "details": "320 g/ha, 3 weeks after application", "in_short": "as §4"}}, "data": [{"smiles": "CON=C(C)CC1CC(O)=C(c2c(C)cccc2C)C1=O", "note": "(stereo not drawn) [6-112]", "values": [{"measurement": "Herbicidal effect grade, A: Echinochloa oryzacola Vasing.", "setting": "[1]", "result": "5 (Herbicidal ratio of 90% or more (almost completely withered))"}, {"measurement": "Herbicidal effect grade, C: Monochoria vaginalis", "setting": "Monochoria vaginalis", "result": "0 (Herbicidal ratio of 5% or lower (almost no effect))"}, {"measurement": "Herbicidal effect grade, A: Echinochloa oryzacola Vasing.", "setting": "[2]", "result": "3 (Herbicidal ratio of 40% or higher and lower than 70%)"}, {"measurement": "Herbicidal effect grade, F: Digitaria ciliaris", "setting": "Digitaria ciliaris", "result": "5 (Herbicidal ratio of 90% or more (almost completely withered))"}, {"measurement": "Herbicidal effect grade, R: Veronica persica", "setting": "Veronica persica [3]", "result": "0 (Herbicidal ratio of 5% or lower (almost no effect))"}, {"measurement": "I: Avena fatua, herbicidal effect (criteria of Test Example 1)", "setting": "Avena fatua", "result": "5 (Herbicidal ratio of 90% or more (almost completely withered))"}, {"measurement": "K: Lolium multiflorum Lam., herbicidal effect (criteria of Test Example 1)", "setting": "Lolium multiflorum Lam.", "result": "5 (Herbicidal ratio of 90% or more (almost completely withered))"}, {"measurement": "R: Veronica persica, herbicidal effect (criteria of Test Example 1)", "setting": "Veronica persica [4]", "result": "1 (Herbicidal ratio of 5% or higher and lower than 20%)"}, {"measurement": "c: corn, effect on crop (criteria of Test Example 1)", "setting": "corn", "result": "5 (Herbicidal ratio of 90% or more (almost completely withered))"}, {"measurement": "f: beet, effect on crop (criteria of Test Example 1)", "setting": "beet", "result": "0 (Herbicidal ratio of 5% or lower (almost no effect))"}, {"measurement": "g: rapeseed, effect on crop (criteria of Test Example 1)", "setting": "rapeseed", "result": "4 (Herbicidal ratio of 70% or higher and lower than 90%)"}, {"measurement": "melting point", "result": "167 to 170", "unit": "°C"}]}]}
